Source: patent publication US9695155B2, “Herbicidal substituted pyrimidinyloxy benzene compounds” (E. I. DU PONT DE NEMOURS AND COMPANY, priority 2013, dated 2017)

What was measured:
[1] = system: corn; experiment: Test A postemergence; format: in vivo, Zea mays; settings: 0 to 100 scale where 0 is no effect and 100 is complete control
Outline: (§1)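 Visual 0–100 rating (100 = complete control) taken about 10 d post-treatment relative to untreated checks. Preemergence: directed soil spray on sown loam/sand pots. Postemergence: seedlings 2–10 cm, 1–2 leaf. Non-phytotoxic solvent formulation with surfactant.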

[2] = system: large (Lg) crabgrass; experiment: Test C postemergence; format: in vivo, Digitaria sanguinalis; settings: for Crabgrass, Large plant response rating / Plant response rating, Crabgrass, Large: scale 0 to 100 (0 no effect, 100 complete control)
Outline: (§2)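 Seeds are planted in blended loam soil and sand and treated preemergence, while seedlings in a peat moss/vermiculite medium receive postemergence sprays at 2 to 18 cm height. All plants stay in the greenhouse for 13 to 15 days before visual comparison with controls on a 0–100 scale.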

[3] = system: johnsongrass; experiment: Test C preemergence; format: in vivo, Sorghum halepense; settings: for Johnsongrass plant response rating: preemergence; for Plant response rating, Johnsongrass: Preemergence, scale 0 to 100, 0 no effect, 100 complete control
Outline: as §2

[4] = system: galium; experiment: Test C preemergence; format: in vivo, Galium aparine; settings: for Galium plant response rating: preemergence; for Plant response rating, Galium: Preemergence, scale 0 to 100, 0 no effect, 100 complete control
Outline: as §2

[5] = system: waterhemp; experiment: Test C postemergence; format: in vivo, Amaranthus rudis; settings: for Plant response rating, Waterhemp / Waterhemp plant response rating: scale 0 to 100 (0 no effect, 100 complete control); for Waterhemp plant response rating: 31 g ai/ha
Outline: as §2

[6] = system: large (Lg) crabgrass; experiment: Test C preemergence; format: in vivo, Digitaria sanguinalis; settings: for Crabgrass, Large plant response rating: preemergence; for Plant response rating, Crabgrass, Large: Preemergence, scale 0 to 100, 0 no effect, 100 complete control
Outline: as §2

[7] = system: oilseed rape; experiment: Test C postemergence; format: in vivo, Brassica napus; settings: for Plant response rating, Oilseed Rape / Oilseed Rape plant response rating: scale 0 to 100 (0 no effect, 100 complete control); for Oilseed Rape plant response rating: 31 g ai/ha
Outline: as §2

[8] = system: barnyardgrass; experiment: Test A preemergence; format: in vivo, Echinochloa crus-galli; settings: for Barnyardgrass plant response rating: 500 g ai/ha
Outline: as §1

[9] = system: rice; experiment: Test B flooded paddy test; format: in vivo, Oryza sativa; settings: Flood, 250 g ai/ha; 0 to 100 scale where 0 is no effect and 100 is complete control
Outline: (§3)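 Seedlings are raised to two leaves, flooded to a depth of 3 cm and dosed by adding the compound to the floodwater. Water level is kept constant, and plants are scored visually versus controls 13–15 days later (0 = no effect, 100 = complete control).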

[10] = system: velvetleaf; experiment: Test C preemergence; format: in vivo, Abutilon theophrasti; settings: for Velvetleaf plant response rating: preemergence; for Plant response rating, Velvetleaf: Preemergence, scale 0 to 100, 0 no effect, 100 complete control
Outline: as §2

[11] = system: sedge, umbrella; experiment: Test B flooded paddy test; format: in vivo, Cyperus difformis; settings: Flood, 250 g ai/ha; 0 to 100 scale where 0 is no effect and 100 is complete control
Outline: as §3

[12] = system: barnyardgrass; experiment: Test A postemergence; format: in vivo, Echinochloa crus-galli; settings: 0 to 100 scale where 0 is no effect and 100 is complete control
Outline: as §1

[13] = system: soybean; experiment: Test C postemergence; format: in vivo, Glycine max; settings: for Plant response rating, Soybean / Soybean plant response rating: scale 0 to 100 (0 no effect, 100 complete control); for Soybean plant response rating: 31 g ai/ha
Outline: as §2

[14] = system: velvetleaf; experiment: Test C postemergence; format: in vivo, Abutilon theophrasti; settings: for Plant response rating, Velvetleaf / Velvetleaf plant response rating: scale 0 to 100 (0 no effect, 100 complete control); for Velvetleaf plant response rating: 31 g ai/ha
Outline: as §2

[15] = system: lambsquarters; experiment: Test C postemergence; format: in vivo, Chenopodium album; settings: for Plant response rating, Lambsquarters / Lambsquarters plant response rating: scale 0 to 100 (0 no effect, 100 complete control); for Lambsquarters plant response rating: 31 g ai/ha
Outline: as §2

[16] = 125 g ai/ha, postemergence, visual rating
[17] = 16 g ai/ha, scale 0 to 100 (0 no effect, 100 complete control)
[18] = 62 g ai/ha, scale 0 (no effect) to 100 (complete control)
[19] = 125 g ai/ha, scale 0 (no effect) to 100 (complete control)
[20] = 125 g ai/ha, 0 to 100 scale where 0 is no effect and 100 is complete control
[21] = 31 g ai/ha, postemergence, visual rating, 13 to 15 days
[22] = Postemergence, 62 g ai/ha, 13 to 15 days
[23] = 250 g ai/ha, scale 0 (no effect) to 100 (complete control)
[24] = postemergence, visual rating, 13 to 15 days
[25] = 0 to 100 scale where 0 is no effect and 100 is complete control
[26] = 16 g ai/ha, postemergence, 0 is no effect, 100 is complete control

N#Cc1cnn(-c2c(C#N)cccc2Oc2ncc(F)cn2)c1 [Compound 111]
Plant response rating, Corn ([1]; 125 g ai/ha): 30
Plant response rating, Corn ([1]; 500 g ai/ha): 90
Crabgrass, Large plant response rating ([2]; 16 g ai/ha, postemergence, visual rating, 13 to 15 days): 5
Plant response rating, Crabgrass, Large [2, 16]: 35
Plant response rating, Crabgrass, Large ([2]; Postemergence, 62 g ai/ha): 10
Johnsongrass plant response rating [3, 17]: 0
Johnsongrass plant response rating [3, 18]: 25
Johnsongrass plant response rating [3, 19]: 80
Plant response rating, Johnsongrass ([3]; 31 g ai/ha): 5
Galium plant response rating [4, 17]: 90
Galium plant response rating [4, 18]: 100
Galium plant response rating [4, 19]: 75
Plant response rating, Galium ([4]; 31 g ai/ha): 100
Plant response rating, Waterhemp [5, 16]: 90
Plant response rating, Waterhemp ([5]; Postemergence, 62 g ai/ha): 80
Crabgrass, Large plant response rating [6, 17]: 98
Crabgrass, Large plant response rating [6, 18]: 100
Crabgrass, Large plant response rating [6, 19]: 100
Plant response rating, Crabgrass, Large ([6]; 31 g ai/ha): 100
Plant response rating, Oilseed Rape [7, 16]: 80
Plant response rating, Oilseed Rape ([7]; Postemergence, 62 g ai/ha): 60
Plant response rating, Barnyardgrass [8, 20]: 90
Barnyardgrass plant response rating ([8]; 0 to 100 scale, 0 no effect, 100 complete control, approx. 10 days): 100
Plant response rating, Rice [9]: 0
Velvetleaf plant response rating [10, 17]: 60
Velvetleaf plant response rating [10, 18]: 90
Velvetleaf plant response rating [10, 19]: 100
Plant response rating, Velvetleaf ([10]; 31 g ai/ha): 60
Plant response rating, Sedge, Umbrella [11]: 75
Plant response rating, Barnyardgrass ([12]; 125 g ai/ha): 60
Plant response rating, Barnyardgrass ([12]; 500 g ai/ha): 90
Plant response rating, Soybean [13, 16]: 95
Plant response rating, Soybean ([13]; Postemergence, 62 g ai/ha): 80
Plant response rating, Velvetleaf [14, 16]: 80
Plant response rating, Velvetleaf ([14]; Postemergence, 62 g ai/ha): 75
Plant response rating, Lambsquarters [15, 16]: 90
Plant response rating, Lambsquarters ([15]; Postemergence, 62 g ai/ha): 80

N#Cc1cccc(Oc2ncc(Cl)cn2)c1-n1cc(I)cn1 [Compound 204]
Corn plant response rating ([1]; 125 g ai/ha): 50
Plant response rating, Corn ([1]; 500 g ai/ha): 60
Crabgrass, Large plant response rating [2, 21]: 5
Plant response rating, Crabgrass, Large [2, 16]: 15
Plant response rating (0 to 100), Crabgrass, Large ([2]; 250 g ai/ha, postemergence): 65
Plant response rating, Crabgrass, Large [2, 22]: 10
Johnsongrass plant response rating [3, 19]: 95
Johnsongrass plant response rating [3, 23]: 98
Plant response rating, Johnsongrass ([3]; 62 g ai/ha): 80
Galium plant response rating [4, 19]: 100
Galium plant response rating [4, 23]: 100
Plant response rating, Galium ([4]; 62 g ai/ha): 100
Waterhemp plant response rating [5, 24]: 85
Plant response rating, Waterhemp [5, 16]: 90
Plant response rating (0 to 100), Waterhemp ([5]; 250 g ai/ha, postemergence): 95
Plant response rating, Waterhemp [5, 22]: 90
Crabgrass, Large plant response rating [6, 19]: 100
Crabgrass, Large plant response rating [6, 23]: 100
Plant response rating, Crabgrass, Large ([6]; 62 g ai/ha): 100
Oilseed Rape plant response rating [7, 24]: 40
Plant response rating, Oilseed Rape [7, 16]: 85
Plant response rating (0 to 100), Oilseed Rape ([7]; 250 g ai/ha, postemergence): 75
Plant response rating, Oilseed Rape [7, 22]: 70
Barnyardgrass plant response rating (0 to 100 scale, 0 is no effect, 100 is complete control) ([8]; 125 g ai/ha): 70
Barnyardgrass plant response rating [8, 25]: 100
Plant response rating, Rice [9]: 20
Velvetleaf plant response rating [10, 19]: 98
Velvetleaf plant response rating [10, 23]: 98
Plant response rating, Velvetleaf ([10]; 62 g ai/ha): 85
Plant response rating, Sedge, Umbrella [11]: 90
Barnyardgrass plant response rating ([12]; 125 g ai/ha): 80
Plant response rating, Barnyardgrass ([12]; 500 g ai/ha): 90
Soybean plant response rating [13, 24]: 70
Plant response rating, Soybean [13, 16]: 95
Plant response rating (0 to 100), Soybean ([13]; 250 g ai/ha, postemergence): 95
Plant response rating, Soybean [13, 22]: 95
Velvetleaf plant response rating [14, 24]: 35
Plant response rating, Velvetleaf [14, 16]: 60
Plant response rating (0 to 100), Velvetleaf ([14]; 250 g ai/ha, postemergence): 70
Plant response rating, Velvetleaf [14, 22]: 40
Lambsquarters plant response rating [15, 24]: 85
Plant response rating, Lambsquarters [15, 16]: 90
Plant response rating (0 to 100), Lambsquarters ([15]; 250 g ai/ha, postemergence): 95
Plant response rating, Lambsquarters [15, 22]: 80

CCCOc1cnn(-c2c(C#N)cccc2Oc2ncc(Cl)cn2)c1 [Compound 150]
Corn plant response rating ([1]; 125 g ai/ha): 50
Plant response rating, Corn ([1]; 500 g ai/ha): 90
Plant response rating (0 to 100), Crabgrass, Large [2, 26]: 5
Crabgrass, Large plant response rating [2, 21]: 5
Plant response rating, Crabgrass, Large [2, 16]: 10
Plant response rating, Crabgrass, Large ([2]; Postemergence, 62 g ai/ha): 5
Johnsongrass plant response rating [3, 17]: 0
Johnsongrass plant response rating [3, 18]: 70
Johnsongrass plant response rating [3, 19]: 80
Galium plant response rating [4, 17]: 0
Galium plant response rating [4, 18]: 90
Galium plant response rating [4, 19]: 100
Plant response rating, Galium ([4]; 31 g ai/ha): 80
Plant response rating (0 to 100), Waterhemp [5, 26]: 35
Waterhemp plant response rating [5, 24]: 35
Plant response rating, Waterhemp [5, 16]: 65
Plant response rating, Waterhemp ([5]; Postemergence, 62 g ai/ha): 35
Crabgrass, Large plant response rating [6, 17]: 70
Crabgrass, Large plant response rating [6, 18]: 100
Crabgrass, Large plant response rating [6, 19]: 100
Plant response rating, Crabgrass, Large ([6]; 31 g ai/ha): 98
Plant response rating (0 to 100), Oilseed Rape [7, 26]: 5
Oilseed Rape plant response rating [7, 24]: 40
Plant response rating, Oilseed Rape [7, 16]: 50
Plant response rating, Oilseed Rape ([7]; Postemergence, 62 g ai/ha): 45
Plant response rating, Barnyardgrass [8, 20]: 90
Barnyardgrass plant response rating [8, 25]: 100
Plant response rating, Rice [9]: 0
Velvetleaf plant response rating [10, 17]: 5
Velvetleaf plant response rating [10, 18]: 60
Velvetleaf plant response rating [10, 19]: 70
Plant response rating, Sedge, Umbrella [11]: 85
Barnyardgrass plant response rating ([12]; 125 g ai/ha): 100
Plant response rating (0 to 100), Soybean [13, 26]: 65
Soybean plant response rating [13, 24]: 65
Plant response rating, Soybean [13, 16]: 95
Plant response rating, Soybean ([13]; Postemergence, 62 g ai/ha): 65
Plant response rating (0 to 100), Velvetleaf [14, 26]: 20
Velvetleaf plant response rating [14, 24]: 25
Plant response rating, Velvetleaf [14, 16]: 30
Plant response rating, Velvetleaf ([14]; Postemergence, 62 g ai/ha): 30
Plant response rating (0 to 100), Lambsquarters [15, 26]: 10
Lambsquarters plant response rating [15, 24]: 30
Plant response rating, Lambsquarters [15, 16]: 80
Plant response rating, Lambsquarters ([15]; Postemergence, 62 g ai/ha): 35
